This is an account of results in publication PMC7910576, “Marine furanocembranoids-inspired macrocycles enabled by Pd-catalyzed unactivated C(sp^3)-H olefination mediated by donor/donor carbenes” (Nature Communications, 2021).

By IC50 is commonly meant the concentration that inhibits the measured activity by half. For orientation: CC50 means the concentration at which the toxic effect on the cells reaches its halfway point.

The subject of one data set is IL-6. Description: LPS-induced IL-6 production in RAW264.7 macrophages (ELISA). As to conditions: for IC50: Mus musculus, RAW264.7 macrophages, LPS 5 μg/mL, 24 h; for potency of inhibitory activity on IL-6 relative to Dexamethasone: compared with Dexamethasone. The data set is classed as cell-based, mouse. As for the experimental part:
(§1) RAW264.7 cell, a murine macrophage cell line, was purchased from American Type Culture Collection (ATCC, Manassas, VA, USA). Cells were grown in Dulbecco’s Modified Eagle Media (DMEM) containing 10% fetal bovine serum, 2 mM L-glutamine, 100 U/mL penicillin, and 100 μg/mL streptomycin and were maintained at 37 °C in a humidified incubator of 5% CO2.
(§2) RAW264.7 cells (1 × 10^5/well) were seeded into 96-well plates in triplicate and were treated with DMEM media only or 5 μg/mL of LPS or with indicated concentrations of compounds for 24 h. Supernatants were collected and then quantified with the mouse TNF-α, IL-6, and IL-1β ELISA kits following the manufacturer’s instructions.

The test system of a further data set is IL-1β. Description: LPS-induced IL-1β production in RAW264.7 macrophages (ELISA). The format is cell-based. To be noted: Mus musculus, LPS 5 μg/mL, 24 h. Here is the method: as §1, §2
(In general: ELISA stands for enzyme-linked immunosorbent assay.)

A short description of data set [1]: Cell viability assay (MTT) in RAW264.7 cells. The format is cell-based, mouse. To be noted: mouse, RAW264.7 macrophage cells; RAW264.7 cells, 24 h, MTT; read-out: Cytotoxicity CC50. Here is the method:
as §1
(§3) RAW264.7 cells (1 × 10^5/well) were seeded into 96-well plates in triplicate and were treated with DMEM media or indicated concentrations of compounds for 24 h. MTT solution was added to each well at a final concentration of 0.5 mg/ml and incubated for 4 h before the end of the culture. The quantity of formazan is measured at 570 nm with a microplate reader (Molecular Devices, Sunnyvale, CA, USA) and the cell viability was calculated.

The subject of another data set is TNF-α. Put plainly: LPS-induced TNF-α production in RAW264.7 macrophages (ELISA). To be noted: Mus musculus, LPS 5 μg/mL, 24 h. The data set is classed as cell-based. Here is the method:
as §1, §2

The subject of another data set is RAW264.7 cells. Put plainly: Cell viability assay (MTT) in RAW264.7 cells. The data set is classed as cell-based, mouse. As to conditions: at the indicated concentrations, compared to Dexamethasone. As for the experimental part:
as §1, §3

A further data set concerns NF-κB signaling pathway. Description: Western blotting of LPS-induced NF-κB signaling pathway activation in RAW264.7 cells. The format is cell-based, mouse. To be noted: Western blot. Here is the method: as §1
RAW264.7 cells (6 × 10^5/well) were seeded into 24-well plates and treated with DMEM media only or 5 μg/mL of LPS or with indicated concentrations of compounds for 24 h. Cells were lysed in sodium dodecyl sulfate (SDS) sample buffer containing protease inhibitor cocktail (Roche Life Science, Mannheim, Germany). The resulted proteins were resolved by SDS-polyacrylamide gel electrophoresis and then subjected to the following antibodies: anti-mouse IKK-α, anti-mouse phospho-IKK-α, anti-mouse IκB-α, anti-mouse NF-κB p65, anti-mouse phospho-NF-κB p65 antibodies (Cell Signaling Technology, Beverly, MA), and HRP-conjugated mouse anti-GAPDH (Kangcheng, Shanghai, China). Signals were detected with an HRP-conjugated anti-rabbit IgG (Bio-Rad, Richmond, CA, USA) using an ECL system (Amersham Biosciences, Buckinghamshire, UK). The uncropped and unprocessed scans of indicated blots were supplied as Supplementary Figure 99 in the Supplementary Information.
(In general: Immunoblotting shows a protein as a band on a membrane.)

Consider `Cc1oc2cc1C(=O)NCCCCCCCCCCCC(=O)N[C@@H](Cc1ccccc1)C(=O)Nc1ccc(cc1)C(C)(C)/C=C\2C(C)(C)C` [6a], for which the IC50 in the data set on IL-6 is 53.6 µM; with IL-1β, 12.8 µM; in the data set on TNF-α it was above 250 µM. The CC50 at 24 h in data set [1] was found to be 152 µM.

As to `Cc1oc2cc1C(=O)NCCCCCCCCCCCC(=O)N[C@@H](C)C(=O)Nc1ccc(cc1)C(C)(C)/C=C\2C(C)(C)C` [6b], the IC50 was 7.28 µM in the data set with IL-6, 3.4 µM in the data set on IL-1β and 2.15 µM with TNF-α. Moreover, in data set [1], the CC50 at 24 h came to 39.7 µM.

With `Cc1oc2cc1C(=O)NCCCCCCCCCCCC(=O)N[C@@H](C(C)C)C(=O)Nc1ccc(cc1)C(C)(C)/C=C\2C(C)(C)C` [6c], the IC50 in the data set on IL-6 worked out at 10.5 µM; in the data set on IL-1β, 4.38 µM; with TNF-α, 11.5 µM. Moreover, the half-maximal cytotoxic concentration (CC50) at 24 h in data set [1] came to 154 µM.

`Cc1oc2cc1C(=O)NCCCCCCCCCCCC(=O)N1CCC[C@H]1C(=O)Nc1ccc(cc1)C(C)(C)/C=C\2C(C)(C)C` [6d]: the IC50 worked out at 196 µM with IL-6, 17.6 µM in the data set on IL-1β and 107 µM with TNF-α. For the same molecule, the cytotoxic concentration (CC50) at 24 h in data set [1] is 27.7 µM.

As to `Cc1oc2cc1C(=O)NCCCCCCCCCCCC(=O)N[C@@H](C(C)C)C(=O)N[C@@H](Cc1ccccc1)C(=O)Nc1ccc(cc1)C(C)(C)/C=C\2C(C)(C)C` [6e], the IC50 was 80.8 µM with IL-6, 3.05 µM in the data set on IL-1β and above 250 µM in the data set on TNF-α. Also, the cytotoxic concentration (CC50) at 24 h in data set [1] was above 250 µM.

With `CSCC[C@@H]1NC(=O)CCCCCCCCCCCNC(=O)c2cc(oc2C)/C(C(C)(C)C)=C\C(C)(C)c2ccc(cc2)NC(=O)[C@H](Cc2ccccc2)NC1=O` [6f], the IC50 with IL-6 came to 29.5 µM; in the data set on IL-1β it was 8.61 µM; in the data set on TNF-α, 10 µM. The 50% cytotoxic concentration (CC50) at 24 h in data set [1] was 214 µM.

For the molecule `Cc1oc2cc1C(=O)NCCCCCCCCCCCC(=O)Nc1ccc(cc1)C(C)(C)/C=C\2C(C)(C)C` [6g], in the data set on IL-6, half-maximal inhibition (IC50) required 1.59 µM and the “potency of inhibitory activity on IL-6 relative to Dexamethasone” value is listed as “approximately ten times more potent”. In the data set on IL-1β, the IC50 came to 0.59 µM. Moreover, in the data set on RAW264.7 cells, the “cytotoxicity (in words)” value is “did not show obvious cytotoxicity”. Moreover, the CC50 at 24 h in data set [1] is above 250 µM. In the data set with TNF-α, this molecule returned an IC50 of 0.45 µM. Further, in the data set on NF-κB signaling pathway, the “degradation of IκB-α” value is reported as “abrogate”, the “phosphorylation of IKK-α” value is “abrogate” and the “phosphorylation of NF-κB” value was “suppressed by 6g in a concentration-dependent manner”.

For the molecule `Cc1oc2cc1C(=O)N[C@@H](C(C)C)C(=O)NCCCCCCCCCCCC(=O)Nc1ccc(cc1)C(C)(C)/C=C\2C(C)(C)C` [6h], the IC50 was found to be 0.95 µM with IL-6, 0.0041 µM in the data set with IL-1β and 56.4 µM in the data set with TNF-α. In addition, the “potency of inhibitory activity on IL-6 relative to Dexamethasone” value with IL-6 is recorded as “approximately ten times more potent”. Further, the “cytotoxicity (in words)” value with RAW264.7 cells was “did not show obvious cytotoxicity”. Moreover, in data set [1], the CC50 at 24 h was 56.4 µM.
